Where a name gives a salt, the structure may show the parent alone. Numbered stars: 1 amine (or outer) side, 2 acyl side, 3 side chain; on linkers, the order of the positions; unused ones are H or OH. Bridge positions count the residues as written; N and C are the ends. Peptide text beside a SMILES is read from it. I, II: the chains in the order shown. Rhodamine110 = O=C1OC2(c3ccc(N[*:1])cc3Oc3cc(N[*:2])ccc32)c2ccccc21
How the values were obtained:
Assay type in all cases: cell-based, human
monocytes = assay: aberrant enzyme activities in febrile children, monocytes (Table 7)
lymphocytes = assay: aberrant enzyme activities in febrile children, lymphocytes (Table 7)
granulocytes = assay: aberrant enzyme activities in febrile children, granulocytes (Table 7)
[1] = P88 Enteritis, listed as Z-Gly/Pro

| Compound | aberrant enzyme activity, MONOS (monocytes; P89 Viral Stomatitis) | aberrant enzyme activity, LYMPHS (lymphocytes; P88 Enteritis) | aberrant enzyme activity, LYMPHS (lymphocytes; P89 Viral Stomatitis) | aberrant enzyme activity, LYMPHS (lymphocytes; P102 UTI) | aberrant enzyme activity, GRANS (granulocytes; P88 Enteritis) | aberrant enzyme activity, GRANS (granulocytes; P89 Viral Stomatitis) | aberrant enzyme activity, GRANS (granulocytes; P102 UTI) | aberrant enzyme activity, LYMPHS (lymphocytes; P92 Adenitis) | aberrant enzyme activity, LYMPHS (lymphocytes; P97 Pyelonephritis) | aberrant enzyme activity, LYMPHS (lymphocytes; P103 Viral Syndrome) | aberrant enzyme activity, MONOS (monocytes; P92 Adenitis) | aberrant enzyme activity, MONOS (monocytes; P97 Pyelonephritis) | aberrant enzyme activity, MONOS (monocytes; P103 Viral Syndrome) | aberrant enzyme activity, GRANS (granulocytes; P92 Adenitis) | aberrant enzyme activity, GRANS (granulocytes; P97 Pyelonephritis) | aberrant enzyme activity, GRANS (granulocytes; P103 Viral Syndrome) | aberrant enzyme activity, MONOS (monocytes; P88 Enteritis) | aberrant enzyme activity, MONOS (monocytes; P96 Viral Syndrome) | aberrant enzyme activity, MONOS (monocytes; P99 Viral Syndrome) | aberrant enzyme activity, MONOS (monocytes; P102 UTI) | other results |
| --- | --- | --- | --- | --- | --- | --- | --- | --- | --- | --- | --- | --- | --- | --- | --- | --- | --- | --- | --- | --- | --- |
| CC(C)C[C@H](NC(=O)[C@@H]1CCCN1C(=O)CN)C(=O)NCC(=O)N1CCC[C@H]1C(=O)Nc1ccc2c(c1)Oc1cc(NC(=O)[C@@H]3CCCN3C(=O)CNC(=O)[C@H](CC(C)C)NC(=O)[C@@H]3CCCN3C(=O)CN)ccc1C21OC(=O)c2ccccc21 [GPLGP, (H-Gly--Pro--Leu--Gly--Pro)2 Rho 110 .2TFA] (I: H-GPLGP / II: H-GPLGP; linker I:C-II:C via Rhodamine110) | .smallcircle. | .smallcircle. | .smallcircle. | .smallcircle. | .smallcircle. | .smallcircle. | .smallcircle. |  |  |  |  |  |  |  |  |  |  |  |  |  |  |
| C[C@H](N)C(=O)N[C@@H](C)C(=O)Nc1ccc2c(c1)Oc1cc(NC(=O)[C@H](C)NC(=O)[C@H](C)N)ccc1C21OC(=O)c2ccccc21 [AA-TFA, (H-L-Ala--Ala)2 Rho 110 .2TFA] |  |  |  |  |  |  |  | .smallcircle. | .smallcircle. | .smallcircle. |  |  |  |  |  |  |  |  |  |  |  |
| N[C@@H](CC(=O)O)C(=O)Nc1ccc2c(c1)Oc1cc(NC(=O)[C@@H](N)CC(=O)O)ccc1C21OC(=O)c2ccccc21 [ASP, (H-L-Asp)2 --Rho 110 .2TFA] |  |  |  |  |  |  |  | .smallcircle. | .smallcircle. | .smallcircle. | .smallcircle. | .smallcircle. | .smallcircle. | .smallcircle. | .smallcircle. | .smallcircle. |  |  |  |  |  |
| dichlorofluorescein [reference compound] | + (>0.25 Increase over normal range) | .smallcircle. | + (>0.25 Increase over normal range) | .smallcircle. | .smallcircle. | + (>0.25 Increase over normal range) | .smallcircle. | + (>0.25 Increase over normal range) | + (>0.25 Increase over normal range) | + (>0.25 Increase over normal range) | + (>0.25 Increase over normal range) | + (>0.25 Increase over normal range) | + (>0.25 Increase over normal range) | + (>0.25 Increase over normal range) | + (>0.25 Increase over normal range) | + (>0.25 Increase over normal range) | .smallcircle. | + (>0.25 Increase over normal range) | .smallcircle. | .smallcircle. | aberrant enzyme activity, MONOS (monocytes; P95 Viral Syndrome): + (>0.25 Increase over normal range); aberrant enzyme activity, MONOS (monocytes; P101 Fever -- Unknown Origin): + (>0.25 Increase over normal range); aberrant enzyme activity, LYMPHS (lymphocytes; P95 Viral Syndrome): + (>0.25 Increase over normal range); aberrant enzyme activity, LYMPHS (lymphocytes; P96 Viral Syndrome): + (>0.25 Increase over normal range); aberrant enzyme activity, LYMPHS (lymphocytes; P99 Viral Syndrome): .smallcircle.; aberrant enzyme activity, LYMPHS (lymphocytes; P101 Fever -- Unknown Origin): + (>0.25 Increase over normal range); aberrant enzyme activity, GRANS (granulocytes; P95 Viral Syndrome): + (>0.25 Increase over normal range); aberrant enzyme activity, GRANS (granulocytes; P96 Viral Syndrome): + (>0.25 Increase over normal range); aberrant enzyme activity, GRANS (granulocytes; P99 Viral Syndrome): .smallcircle.; aberrant enzyme activity, GRANS (granulocytes; P101 Fever -- Unknown Origin): + (>0.25 Increase over normal range) |
| O=C1OC2(c3ccc(OC4O[C@H](CO)[C@@H](O)[C@H](O)[C@H]4O)cc3Oc3cc(OC4O[C@H](CO)[C@@H](O)[C@H](O)[C@H]4O)ccc32)c2ccccc21 (stereo partly drawn) [DGLUC, (D-glucose)2 fluorescein] | .smallcircle. | .smallcircle. | .smallcircle. |  | .smallcircle. | + (>0.25 Increase over normal range) |  | .smallcircle. |  | - (>0.25 Decrease over normal range) | - (>0.25 Decrease over normal range) |  | + (>0.25 Increase over normal range) | + (>0.25 Increase over normal range) |  | + (>0.25 Increase over normal range) | - (>0.25 Decrease over normal range) |  |  |  |  |
| O=C(NCC(=O)N1CCC[C@H]1C(=O)Nc1ccc2c(c1)Oc1cc(NC(=O)[C@@H]3CCCN3C(=O)CNC(=O)OCc3ccccc3)ccc1C21OC(=O)c2ccccc21)OCc1ccccc1 [Z-GP, (carbobenzyloxycarbonyl-Gly-Pro)2 Rho 110] | .smallcircle. |  | - (>0.25 Decrease over normal range) |  |  |  |  | - (>0.25 Decrease over normal range) |  | - (>0.25 Decrease over normal range) | - (>0.25 Decrease over normal range) | .smallcircle. | .smallcircle. | - (>0.25 Decrease over normal range) | .smallcircle. | .smallcircle. |  | .smallcircle. | .smallcircle. | .smallcircle. | aberrant enzyme activity, MONOS (monocytes; [1]): .smallcircle.; aberrant enzyme activity, MONOS (monocytes; P95 Viral Syndrome): .smallcircle.; aberrant enzyme activity, MONOS (monocytes; P101 Fever -- Unknown Origin): - (>0.25 Decrease over normal range); aberrant enzyme activity, LYMPHS (lymphocytes; [1]): .smallcircle.; aberrant enzyme activity, LYMPHS (lymphocytes; P95 Viral Syndrome): - (>0.25 Decrease over normal range); aberrant enzyme activity, LYMPHS (lymphocytes; P96 Viral Syndrome): - (>0.25 Decrease over normal range); aberrant enzyme activity, LYMPHS (lymphocytes; P97 Pyelonephritis, listed as Z-Gly/Pro): .smallcircle.; aberrant enzyme activity, LYMPHS (lymphocytes; P101 Fever -- Unknown Origin): - (>0.25 Decrease over normal range); aberrant enzyme activity, GRANS (granulocytes; [1]): .smallcircle.; aberrant enzyme activity, GRANS (granulocytes; P95 Viral Syndrome): - (>0.25 Decrease over normal range); aberrant enzyme activity, GRANS (granulocytes; P96 Viral Syndrome): .smallcircle.; aberrant enzyme activity, GRANS (granulocytes; P99 Viral Syndrome): .smallcircle. |
| CC(C)C[C@H](NC(=O)CNC(=O)[C@@H](N)CC(C)C)C(=O)NCC(=O)Nc1ccc2c(c1)Oc1cc(NC(=O)CNC(=O)[C@H](CC(C)C)NC(=O)CNC(=O)[C@@H](N)CC(C)C)ccc1C21OC(=O)c2ccccc21 [LGLG, (H-L-Leu--Gly--Leu--Gly)2 Rho 110 .2TFA] (I: H-LGLG / II: H-LGLG; linker I:C-II:C via Rhodamine110) |  |  |  |  |  |  |  | .smallcircle. | .smallcircle. | .smallcircle. | .smallcircle. | .smallcircle. | .smallcircle. | .smallcircle. | .smallcircle. | .smallcircle. |  |  |  |  |  |
| N[C@@H](CO)C(=O)Nc1ccc2c(c1)Oc1cc(NC(=O)[C@@H](N)CO)ccc1C21OC(=O)c2ccccc21 [SER, (H-L-Ser)2 Rho 110 .2TFA] |  |  |  |  |  |  |  | .smallcircle. | .smallcircle. | .smallcircle. | .smallcircle. | .smallcircle. |  |  | .smallcircle. | .smallcircle. |  |  |  |  |  |
| C[C@H](NC(=O)OCc1ccccc1)C(=O)N[C@@H](C)C(=O)Nc1ccc2c(c1)Oc1cc(NC(=O)[C@H](C)NC(=O)[C@H](C)NC(=O)OCc3ccccc3)ccc1C21OC(=O)c2ccccc21 [Z-AA, (Z-Ala--Ala)2 Rho 110] |  |  |  | .smallcircle. |  |  | .smallcircle. |  |  |  |  | .smallcircle. | .smallcircle. |  | .smallcircle. | .smallcircle. |  | .smallcircle. | .smallcircle. | .smallcircle. | aberrant enzyme activity, LYMPHS (lymphocytes; P99 Viral Syndrome): .smallcircle.; aberrant enzyme activity, GRANS (granulocytes; P96 Viral Syndrome): .smallcircle.; aberrant enzyme activity, GRANS (granulocytes; P99 Viral Syndrome): .smallcircle. |
| C[C@@H](O)[C@H](NC(=O)OCc1ccccc1)C(=O)N1CCC[C@H]1C(=O)Nc1ccc2c(c1)Oc1cc(NC(=O)[C@@H]3CCCN3C(=O)[C@@H](NC(=O)OCc3ccccc3)[C@@H](C)O)ccc1C21OC(=O)c2ccccc21 [Z-TP6.5, (carbobenzyloxycarbonyl-Thr-Pro)2 Rho 110 (pH 6.5)] | - (>0.25 Decrease over normal range) | - (>0.25 Decrease over normal range) | - (>0.25 Decrease over normal range) |  | - (>0.25 Decrease over normal range) | - (>0.25 Decrease over normal range) |  | - (>0.25 Decrease over normal range) | .smallcircle. | .smallcircle. | - (>0.25 Decrease over normal range) | .smallcircle. | .smallcircle. | - (>0.25 Decrease over normal range) |  | .smallcircle. | - (>0.25 Decrease over normal range) |  |  |  |  |

Reference: US5698411A, “Method for determining activity of enzymes in metabolically active whole cells” (priority 1995, dated 1997)
